# Entries after “also recorded” stand apart in the source; their conditions may differ.
# How the values were obtained:
# [1] = tested on: type 2 herpes simplex virus (HSV); assay: HSV2 replication in human embryonic lung fibroblasts (virus yield); format: cell-based, HSV type 2
# Method: Stearic and iodinated stearic acids were assayed for their inhibitory effects on the replication of type 2 herpes simplex virus (HSV) in sub-confluent monolayer cultures of human embryonic lung fibroblasts. […] This was accomplished by reacting hydriodic acid with oleic acid in acetic acid at 20°C. Excess iodine was removed at the end of the reaction by the addition of an excess of sodium thiosulphate, and the product fatty acid was extracted into hexane.
# Bovine serum albumin conjugates of the fatty acids (prepared according to the method of A.A.Spector and-J.C.Hoak, J.Anal.Biochem. 1969, 32, 297-302) were added to the cell culture medium at various concentrations in the range 25 - 100 micromolar final concentration and at various times before and after (from 0 to 12 hours) infection with partially purified clinical isolates of HSV type 2, at a multiplicity of infection of 0.1 plaque forming units/cell.
# 28 hours after infection the titre of infectious virus in the culture supernatants was determined by standard infectious centre techniques on fresh human embryonic lung fibroblasts.
# [2] = tested on: human embryonic lung fibroblasts; assay: cell growth / cytotoxicity in the HSV2 host cell cultures (cell counting); format: cell-based; conditions: stearic acid 100 micromolar
smiles,measurement,setting,value
"CCCCCCCCCCCCCCCCCC(=O)O [stearic acid, octadecanoic acid]",inhibition at 100 µM,"[1]; Human alphaherpesvirus 2, Fibroblast, 28 h, stearic acid 100 µM, time relative to infection -12 hours, read-out: % reduction in virus yield compared with control cultures",0%
same,virus yield,"[1]; stearic acid 25 µM, time relative to infection 1 hours",4.11 x 10^-3 / pfu ml^-1
same,virus yield,"[1]; stearic acid 25 µM, time relative to infection 2 hours",4.31 x 10^-3 / pfu ml^-1
same,virus yield,"[1]; stearic acid 25 µM, time relative to infection 3 hours",3.89 x 10^-3 / pfu ml^-1
same,virus yield,"[1]; stearic acid 25 µM, time relative to infection 4 hours",4.26 x 10^-3 / pfu ml^-1
same,virus yield,"[1]; stearic acid 25 µM, time relative to infection 8 hours",4.41 x 10^-3 / pfu ml^-1
same,virus yield,"[1]; stearic acid 25 µM, time relative to infection 12 hours",4.21 x 10^-3 / pfu ml^-1
same,virus yield,"[1]; stearic acid 25 µM, time relative to infection -1 hours",4.06 x 10^-3 / pfu ml^-1
same,virus yield,"[1]; stearic acid 25 µM, time relative to infection -2 hours",3.72 x 10^-3 / pfu ml^-1
same,virus yield,"[1]; stearic acid 25 µM, time relative to infection -3 hours",4.15 x 10^-3 / pfu ml^-1
same,virus yield,"[1]; stearic acid 25 µM, time relative to infection -4 hours",4.25 x 10^-3 / pfu ml^-1
same,virus yield,"[1]; stearic acid 25 µM, time relative to infection -8 hours",3.88 x 10^-3 / pfu ml^-1
same,virus yield,"[1]; stearic acid 25 µM, time relative to infection -12 hours",4.63 x 10^-3 / pfu ml^-1
same,virus yield,"[1]; stearic acid 50 µM, time relative to infection 0 hours",4.00 x 10^-3 / pfu ml^-1
same,virus yield,"[1]; stearic acid 50 µM, time relative to infection 1 hours",3.96 x 10^-3 / pfu ml^-1
same,virus yield,"[1]; stearic acid 50 µM, time relative to infection 2 hours",4.45 x 10^-3 / pfu ml^-1
same,virus yield,"[1]; stearic acid 50 µM, time relative to infection 3 hours",3.88 x 10^-3 / pfu ml^-1
same,virus yield,"[1]; stearic acid 50 µM, time relative to infection 4 hours",4.36 x 10^-3 / pfu ml^-1
same,virus yield,"[1]; stearic acid 50 µM, time relative to infection 8 hours",4.09 x 10^-3 / pfu ml^-1
same,virus yield,"[1]; stearic acid 50 µM, time relative to infection 12 hours",3.92 x 10^-3 / pfu ml^-1
same,virus yield,"[1]; stearic acid 50 µM, time relative to infection -1 hours",3.14 x 10^-3 / pfu ml^-1
same,virus yield,"[1]; stearic acid 50 µM, time relative to infection -2 hours",3.02 x 10^-3 / pfu ml^-1
same,virus yield,"[1]; stearic acid 50 µM, time relative to infection -3 hours",3.15 x 10^-3 / pfu ml^-1
same,virus yield,"[1]; stearic acid 50 µM, time relative to infection -4 hours",3.98 x 10^-3 / pfu ml^-1
same,virus yield,"[1]; stearic acid 50 µM, time relative to infection -8 hours",4.62 x 10^-3 / pfu ml^-1
same,virus yield,"[1]; stearic acid 50 µM, time relative to infection -12 hours",4.75 x 10^-3 / pfu ml^-1
same,virus yield,"[1]; stearic acid 75 µM, time relative to infection 0 hours",3.55 x 10^-3 / pfu ml^-1
same,virus yield,"[1]; stearic acid 75 µM, time relative to infection 1 hours",4.44 x 10^-3 / pfu ml^-1
same,virus yield,"[1]; stearic acid 75 µM, time relative to infection 2 hours",3.92 x 10^-3 / pfu ml^-1
same,virus yield,"[1]; stearic acid 75 µM, time relative to infection 3 hours",4.53 x 10^-3 / pfu ml^-1
same,virus yield,"[1]; stearic acid 75 µM, time relative to infection 4 hours",4.21 x 10^-3 / pfu ml^-1
same,virus yield,"[1]; stearic acid 75 µM, time relative to infection 8 hours",3.87 x 10^-3 / pfu ml^-1
same,virus yield,"[1]; stearic acid 75 µM, time relative to infection 12 hours",4.11 x 10^-3 / pfu ml^-1
same,virus yield,"[1]; stearic acid 75 µM, time relative to infection -1 hours",2.54 x 10^-3 / pfu ml^-1
same,virus yield,"[1]; stearic acid 75 µM, time relative to infection -2 hours",2.69 x 10^-3 / pfu ml^-1
same,virus yield,"[1]; stearic acid 75 µM, time relative to infection -3 hours",2.31 x 10^-3 / pfu ml^-1
same,virus yield,"[1]; stearic acid 75 µM, time relative to infection -4 hours",2.25 x 10^-3 / pfu ml^-1
same,virus yield,"[1]; stearic acid 75 µM, time relative to infection -8 hours",4.18 x 10^-3 / pfu ml^-1
same,virus yield,"[1]; stearic acid 75 µM, time relative to infection -12 hours",3.96 x 10^-3 / pfu ml^-1
same,virus yield,"[1]; stearic acid 100 µM, time relative to infection 0 hours",3.85 x 10^-3 / pfu ml^-1
same,virus yield,"[1]; stearic acid 100 µM, time relative to infection 1 hours",3.71 x 10^-3 / pfu ml^-1
same,virus yield,"[1]; stearic acid 100 µM, time relative to infection 2 hours",3.96 x 10^-3 / pfu ml^-1
same,virus yield,"[1]; stearic acid 100 µM, time relative to infection 3 hours",3.83 x 10^-3 / pfu ml^-1
same,virus yield,"[1]; stearic acid 100 µM, time relative to infection 4 hours",4.52 x 10^-3 / pfu ml^-1
same,virus yield,"[1]; stearic acid 100 µM, time relative to infection 8 hours",4.03 x 10^-3 / pfu ml^-1
same,virus yield,"[1]; stearic acid 100 µM, time relative to infection 12 hours",4.28 x 10^-3 / pfu ml^-1
same,virus yield,"[1]; stearic acid 100 µM, time relative to infection -1 hours",3.04 x 10^-3 / pfu ml^-1
same,virus yield,"[1]; stearic acid 100 µM, time relative to infection -2 hours",2.77 x 10^-3 / pfu ml^-1
same,virus yield,"[1]; stearic acid 100 µM, time relative to infection -3 hours",2.80 x 10^-3 / pfu ml^-1
same,virus yield,"[1]; stearic acid 100 µM, time relative to infection -4 hours",3.45 x 10^-3 / pfu ml^-1
same,virus yield,"[1]; stearic acid 100 µM, time relative to infection -8 hours",4.33 x 10^-3 / pfu ml^-1
same,virus yield,"[1]; stearic acid 100 µM, time relative to infection -12 hours",4.72 x 10^-3 / pfu ml^-1
same,inhibition of cell division / cell growth,[2],inhibits cell division; also recorded: (+) = some inhibition of cell growth at this concentration of fatty acid supplementation

# Reference: patent EP0238198A2, “Method of modifying the lipid structure function and expression of cell membranes and pharmaceutical compositions for use therein” (Habib, Nagy Adly, priority 1986, dated 1987)
